Consider 24 molecules from article PMC8307317, “Point-Substitution of Phenylalanine Residues of 26RFa Neuropeptide: A Structure-Activity Relationship Study” (Molecules, 2021).

Structures are written as SMILES. Where two headings read alike, the source gives them in different places. Non-standard residues stand in square brackets, D forms with d. Residues, ends and D or L forms follow the SMILES beside them. ξ: configuration not given here. Phe(4-NO2) = N[C@@H](Cc1ccc([N+](=O)[O-])cc1)C(=O)O; Phe(4-tBu) = CC(C)(C)c1ccc(C[C@H](N)C(=O)O)cc1; Phe(4-Cl) = N[C@@H](Cc1ccc(Cl)cc1)C(=O)O; 2Nal = N[C@@H](Cc1ccc2ccccc2c1)C(=O)O; NMeF = CN[C@@H](Cc1ccccc1)C(=O)O; Tic = O=C(O)[C@@H]1Cc2ccccc2CN1; 2Thi = N[C@@H](Cc1cccs1)C(=O)O; ξPhg = NC(C(=O)O)c1ccccc1

In the experiment the target is T1, human QRFPR (hQRFPR) (Homo sapiens, UniProt Q96P65).
T1 construct: expressed in transfected cells; host or cells: CHO cells, stably transfected with hQRFPR (G418 selection) and Gα16 (hygromycin B selection)
T1 sequence (Q96P65 1-431): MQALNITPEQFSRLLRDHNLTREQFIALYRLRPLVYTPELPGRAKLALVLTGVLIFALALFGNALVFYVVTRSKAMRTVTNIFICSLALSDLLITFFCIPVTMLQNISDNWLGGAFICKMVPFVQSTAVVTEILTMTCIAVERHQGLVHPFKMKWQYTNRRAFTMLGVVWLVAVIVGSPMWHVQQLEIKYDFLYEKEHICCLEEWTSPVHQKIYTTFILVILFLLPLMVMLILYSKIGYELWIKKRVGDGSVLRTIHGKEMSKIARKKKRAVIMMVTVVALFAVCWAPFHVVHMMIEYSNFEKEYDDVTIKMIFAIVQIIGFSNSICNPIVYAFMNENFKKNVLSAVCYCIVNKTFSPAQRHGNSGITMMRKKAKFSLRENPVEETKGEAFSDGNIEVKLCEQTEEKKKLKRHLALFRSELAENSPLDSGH
Description: Calcium mobilization assay, agonist mode ([Ca2+]i in Gα16-hQRFPR-transfected CHO cells). The format is cell-based. On the procedure:
Stably transfected hQRFPR CHO cells were obtained as previously described. The cells were maintained in F-12 nutrient mixture (Ham-F12) medium supplemented with 10% fetal bovine serum, 2 mM glutamine, and penicillin-streptomycin. Expression of Gα16 cells was maintained using selection antibiotic hygromycin B (200 µg/mL) and that of hQRFPR using geneticin G418 (500 µg/mL) (Life Technologies, Villebon-Sur-Yvette, France) in a humidified 5% CO2 atmosphere at 37 °C.
Changes in intracellular Ca^2+ concentrations induced by 26RFa(20–26) analogs in CHO-Gα16-hQRFPR-transfected cells were measured on a benchtop scanning fluorometer Flexstation III (Molecular Devices, Sunnyvale, CA, USA) as previously described. Briefly, 96-well assay black plates with clear bottoms (Corning international, Avon, France) were seeded at a density of 40,000 cells/well 24 h prior to assay. For profiling agonistic experiments, cells were loaded with 2 µM Fluo-4 acetoxymethyl ester (AM) (Invitrogen) for 1 h in the presence of 0.01% pluronic acid, washed thrice, and incubated for 30 min with standard HBSS containing 2.5 mM probenecid and 5 mM HEPES. Compounds to be tested were added at final concentrations ranging from 10^−11 to 10^−5 M in HBSS, and the fluorescence intensity was measured during 3 min. To evaluate the antagonistic potency of the test compounds, cells were incubated with each compound over 15 min after Fluo-4 AM loading. Then, during fluorescence recording, a pulse of 26RFa was administered at a final concentration of 10^−7 M. After subtraction of the mean fluorescence background, the baseline was normalized to 100%. Fluorescence peak values were determined for each concentration of compound.
Calcium experiments were performed in triplicate, and data, expressed as mean ± SEM of at least three distinct experiments, were analyzed with the Prism 8.0 software (Graphpad Software, San Diego, CA, USA). EC50 and the IC50 values were determined from concentration–response curves using a sigmoidal dose–response fit with variable slope from at least three independent determinations. Differences between 26RFa(20–26) and analog activities were analyzed by the Mann–Whitney test. p values < 0.05 were considered significant.

The mark [1] stands for this setting: [Ca2+]i mobilization in Gα16-hQRFPR-transfected CHO cells, mean of at least three independent experiments performed in triplicate, read-out: EC50.
[2] abbreviates: single prototype curve, triplicate, basal [Ca2+]i mobilization, read-out: EC50 calculated from representative dose–response curves (Figure 3).

What is called EC50 is the midpoint of the concentration-response curve. On to `N=C(N)NCCC[C@H](NC(=O)[C@H](Cc1ccccc1)NC(=O)[C@H](CO)NC(=O)[C@H](Cc1cccs1)NC(=O)CNC(=O)CN)C(=O)N[C@@H](Cc1ccccc1)C(N)=O` [Compound 2, [Thi^22]26RFa(20–26)] (H-GG[2Thi]SFRF-NH2), for which, under setting [1], the EC50 is 3160 nM.
On the same count and under the same terms, the figure for `N=C(N)NCCC[C@H](NC(=O)[C@H](Cc1cccs1)NC(=O)[C@H](CO)NC(=O)[C@H](Cc1ccccc1)NC(=O)CNC(=O)CN)C(=O)N[C@@H](Cc1ccccc1)C(N)=O` [Compound 3, [Thi^24]26RFa(20–26)] (H-GGFS[2Thi]RF-NH2) is 2530 nM; for `N=C(N)NCCC[C@H](NC(=O)[C@H](Cc1ccccc1)NC(=O)[C@H](CO)NC(=O)[C@H](Cc1ccccc1)NC(=O)CNC(=O)CN)C(=O)N[C@@H](Cc1cccs1)C(N)=O` [Compound 4, [Thi^26]26RFa(20–26)] (H-GGFSFR[2Thi]-NH2) it is 7230 nM.
In the case of `N=C(N)NCCC[C@H](NC(=O)[C@H](Cc1ccccc1)NC(=O)[C@H](CO)NC(=O)[C@H](Cc1ccc2ccccc2c1)NC(=O)CNC(=O)CN)C(=O)N[C@@H](Cc1ccccc1)C(N)=O` [Compound 5, [2Nal^22]26RFa(20–26)] (H-GG[2Nal]SFRF-NH2), the EC50 under setting [1] turned out to be 1150 nM.
Turning to `N=C(N)NCCC[C@H](NC(=O)[C@H](Cc1ccc2ccccc2c1)NC(=O)[C@H](CO)NC(=O)[C@H](Cc1ccccc1)NC(=O)CNC(=O)CN)C(=O)N[C@@H](Cc1ccccc1)C(N)=O` [Compound 6, [2Nal^24]26RFa(20–26)] (H-GGFS[2Nal]RF-NH2), under setting [1], the 50% effective concentration (EC50) is 15300 nM.
On the same count and under the same terms, the figure for `N=C(N)NCCC[C@H](NC(=O)[C@H](Cc1ccccc1)NC(=O)[C@H](CO)NC(=O)[C@H](Cc1ccccc1)NC(=O)CNC(=O)CN)C(=O)N[C@@H](Cc1ccc2ccccc2c1)C(N)=O` [Compound 7, [2Nal^26]26RFa(20–26)] (H-GGFSFR[2Nal]-NH2) is 3790 nM.
The same measure, in the same setting: the figure for `CC(C)(C)c1ccc(C[C@H](NC(=O)[C@H](CO)NC(=O)[C@H](Cc2ccccc2)NC(=O)CNC(=O)CN)C(=O)N[C@@H](CCCNC(=N)N)C(=O)N[C@@H](Cc2ccccc2)C(N)=O)cc1` [Compound 12, [ptBuPhe^24]26RFa(20–26)] (H-GGFS[Phe(4-tBu)]RF-NH2) is greater than 10000 nM.
Take `CC(C)(C)c1ccc(C[C@H](NC(=O)[C@H](CCCNC(=N)N)NC(=O)[C@H](Cc2ccccc2)NC(=O)[C@H](CO)NC(=O)[C@H](Cc2ccccc2)NC(=O)CNC(=O)CN)C(N)=O)cc1` [Compound 13, [ptBuPhe^26]26RFa(20–26)] (H-GGFSFR[Phe(4-tBu)]-NH2): the EC50 was 1040 nM under setting [1] and 1080 nM under setting [2].
With `N=C(N)NCCC[C@H](NC(=O)[C@H](Cc1ccccc1)NC(=O)[C@H](CO)NC(=O)[C@H](Cc1ccc(Cl)cc1)NC(=O)CNC(=O)CN)C(=O)N[C@@H](Cc1ccccc1)C(N)=O` [Compound 14, [Pcp^22]26RFa(20–26)] (H-GG[Phe(4-Cl)]SFRF-NH2), under setting [1], the EC50 came to 5000 nM.
As for `N=C(N)NCCC[C@H](NC(=O)[C@H](Cc1ccc(Cl)cc1)NC(=O)[C@H](CO)NC(=O)[C@H](Cc1ccccc1)NC(=O)CNC(=O)CN)C(=O)N[C@@H](Cc1ccccc1)C(N)=O` [Compound 15, [Pcp^24]26RFa(20–26)] (H-GGFS[Phe(4-Cl)]RF-NH2), the EC50 under setting [1] came to 850 nM.
As to `N=C(N)NCCC[C@H](NC(=O)[C@H](Cc1ccccc1)NC(=O)[C@H](CO)NC(=O)[C@H](Cc1ccccc1)NC(=O)CNC(=O)CN)C(=O)N[C@@H](Cc1ccc(Cl)cc1)C(N)=O` [Compound 16, [Pcp^26]26RFa(20–26)] (H-GGFSFR[Phe(4-Cl)]-NH2), the EC50 is, setting by setting: under setting [1], 457 nM; under setting [2], 416 nM.
As for `N=C(N)NCCC[C@H](NC(=O)[C@H](Cc1ccccc1)NC(=O)[C@H](CO)NC(=O)[C@H](Cc1ccc([N+](=O)[O-])cc1)NC(=O)CNC(=O)CN)C(=O)N[C@@H](Cc1ccccc1)C(N)=O` [Compound 17, [pNO2Phe^22]26RFa(20–26)] (H-GG[Phe(4-NO2)]SFRF-NH2), under setting [1], the EC50 was determined as 2130 nM.
On the same count and under the same terms, the figure for `N=C(N)NCCC[C@H](NC(=O)[C@H](Cc1ccc([N+](=O)[O-])cc1)NC(=O)[C@H](CO)NC(=O)[C@H](Cc1ccccc1)NC(=O)CNC(=O)CN)C(=O)N[C@@H](Cc1ccccc1)C(N)=O` [Compound 18, [pNO2Phe^24]26RFa(20–26)] (H-GGFS[Phe(4-NO2)]RF-NH2) is greater than 10000 nM.
As for `N=C(N)NCCC[C@H](NC(=O)[C@H](Cc1ccccc1)NC(=O)[C@H](CO)NC(=O)[C@H](Cc1ccccc1)NC(=O)CNC(=O)CN)C(=O)N[C@@H](Cc1ccc([N+](=O)[O-])cc1)C(N)=O` [Compound 19, [pNO2Phe^26]26RFa(20–26)] (H-GGFSFR[Phe(4-NO2)]-NH2), the EC50 is, setting by setting: under setting [1], 491 nM; under setting [2], 489 nM.
For `N=C(N)NCCC[C@H](NC(=O)[C@H](Cc1ccccc1)NC(=O)[C@H](CO)NC(=O)C(NC(=O)CNC(=O)CN)c1ccccc1)C(=O)N[C@@H](Cc1ccccc1)C(N)=O` (some centres unmarked) [Compound 20, [Phg^22]26RFa(20–26)] (H-GG[ξPhg]SFRF-NH2), the EC50 under setting [1] came to 5010 nM.
Regarding `N=C(N)NCCC[C@H](NC(=O)C(NC(=O)[C@H](CO)NC(=O)[C@H](Cc1ccccc1)NC(=O)CNC(=O)CN)c1ccccc1)C(=O)N[C@@H](Cc1ccccc1)C(N)=O` (some centres unmarked) [Compound 21, [Phg^24]26RFa(20–26)] (H-GGFS[ξPhg]RF-NH2), the EC50 under setting [1] is greater than 10000 nM.
In the case of `N=C(N)NCCC[C@H](NC(=O)C(NC(=O)[C@H](CO)NC(=O)[C@H](Cc1ccccc1)NC(=O)CNC(=O)CN)c1ccccc1)C(=O)N[C@@H](Cc1ccccc1)C(N)=O` (some centres unmarked) [Compound 22, [Phg^24]26RFa(20–26)] (H-GGFS[ξPhg]RF-NH2), the EC50 under setting [1] is greater than 10000 nM.
On the same count and under the same terms, as for `N=C(N)NCCC[C@H](NC(=O)[C@H](Cc1ccccc1)NC(=O)[C@H](CO)NC(=O)[C@H](Cc1ccccc1)NC(=O)CNC(=O)CN)C(=O)NC(C(N)=O)c1ccccc1` (some centres unmarked) [Compound 23, [Phg^26]26RFa(20–26)] (H-GGFSFR[ξPhg]-NH2), the figure is greater than 10000 nM; as for `N=C(N)NCCC[C@H](NC(=O)[C@H](Cc1ccccc1)NC(=O)[C@H](CO)NC(=O)[C@H](Cc1ccccc1)NC(=O)CNC(=O)CN)C(=O)NC(C(N)=O)c1ccccc1` (some centres unmarked) [Compound 24, [Phg^26]26RFa(20–26)] (H-GGFSFR[ξPhg]-NH2), greater than 10000 nM.
As to `CN(C(=O)CNC(=O)CN)[C@@H](Cc1ccccc1)C(=O)N[C@@H](CO)C(=O)N[C@@H](Cc1ccccc1)C(=O)N[C@@H](CCCNC(=N)N)C(=O)N[C@@H](Cc1ccccc1)C(N)=O` [Compound 25, [NMePhe^22]26RFa(20–26)] (H-GG[NMeF]SFRF-NH2), the EC50 by setting is: under setting [1], 15100 nM; ([Ca2+]i mobilization, N-methylated analogs, read-out: EC50) greater than 10000 nM.
Regarding `CN(C(=O)[C@H](CO)NC(=O)[C@H](Cc1ccccc1)NC(=O)CNC(=O)CN)[C@@H](Cc1ccccc1)C(=O)N[C@@H](CCCNC(=N)N)C(=O)N[C@@H](Cc1ccccc1)C(N)=O` [Compound 26, [NMePhe^24]26RFa(20–26)] (H-GGFS[NMeF]RF-NH2), the EC50 under setting [1] came out at 1360 nM.
On the same count and under the same terms, the figure for `CN(C(=O)[C@H](CCCNC(=N)N)NC(=O)[C@H](Cc1ccccc1)NC(=O)[C@H](CO)NC(=O)[C@H](Cc1ccccc1)NC(=O)CNC(=O)CN)[C@@H](Cc1ccccc1)C(N)=O` [Compound 27, [NMePhe^26]26RFa(20–26)] (H-GGFSFR[NMeF]-NH2) is greater than 10000 nM.
As to `N=C(N)NCCC[C@H](NC(=O)[C@H](Cc1ccccc1)NC(=O)[C@H](CO)NC(=O)[C@@H]1Cc2ccccc2CN1C(=O)CNC(=O)CN)C(=O)N[C@@H](Cc1ccccc1)C(N)=O` [Compound 28, [Tic^22]26RFa(20–26)] (H-GG[Tic]SFRF-NH2), the EC50 runs as follows: under setting [1], 327 nM; under setting [2], 305 nM.
Take `N=C(N)NCCC[C@H](NC(=O)[C@@H]1Cc2ccccc2CN1C(=O)[C@H](CO)NC(=O)[C@H](Cc1ccccc1)NC(=O)CNC(=O)CN)C(=O)N[C@@H](Cc1ccccc1)C(N)=O` [Compound 29, [Tic^24]26RFa(20–26)] (H-GGFS[Tic]RF-NH2): the EC50 under setting [1] is greater than 10000 nM.
